# Experimental data: patent EP1262190A1, “RFRP-CONTAINING PROLACTIN SECRETION REGULATORY AGENT” (Takeda Chemical Industries, Ltd., priority 2000, dated 2001)
# Where no end group is shown, it is not given here.
# Columns and labels:
# [1] = biological target: T1, r0T7T022L receptor-expressing CHO cells (Rattus norvegicus, UniProt Q9EP86); test: Reaction of receptor-expressing CHO cells with peptides in the cytosensor (acidification rate); type: cell-based; settings: peptide exposure for 7 minutes and 2 seconds, FIG. 8
# T1 construct: expressed in transfected cells; host or cells: CHO cells
# From the text: The r0T7T022L receptor-expressing CHO cells obtained in REFERENCE EXAMPLE 7 (2) above were inoculated on capsules for cytosensor in 2.7 x 10^5 cells/capsule. After culturing overnight, the cytosensor was mounted to a work station for the cytosensor. A medium for assay (low buffered RMPI1640 medium supplemented with 0.1% bovine serum albumin), that was set in the flow path of the cytosensor, was supplied to the cells in a pump cycle of ON (80 seconds) and OFF (40 seconds). A rate of change in […] from 8 to 30 seconds after the pump stopped was calculated as an acidification rate. A change of the acidification rate with passage of time was monitored; when stable reading was obtained, the flow path was switched to expose each peptide to the cells for 7 minutes and 2 seconds. In the acidification rate of each well, the data for 3 cycles immediately before the peptide exposure was made 100% for standardization.
# [2] = biological target: T2, Human 0T7T022 receptor-expressing CHO cells (Homo sapiens, UniProt Q9GZQ6); test: Agonist activity of RF amide peptides: inhibition of forskolin-increased cAMP in human 0T7T022 receptor-expressing CHO cells; type: cell-based; settings: 1 µM forskolin, 37°C for 30 minutes, FIG. 14
# T2 construct: expressed in transfected cells; host or cells: CHO cells
# Experimental: Human 0T7T022 receptor-expressing CHO cells obtained by a modification of the method described in WO 00/29441 were inoculated on a 24-well plate in a concentration of 3 x 10^5 cells/well. After incubation overnight, the cells were rinsed with Hanks' buffer (HBSS) supplemented with 0.05% BSA and 0.2 mM IBMX, and then preincubated at 37°C for 30 minutes in the same buffer. Next, the buffer was exchanged by Hanks' buffer (HBSS) supplemented with 0.05% BSA and 0.2 mM IBMX, or HBSS further added with 1 µM forskolin only, or HBSS added with 1 µM forskolin and peptide of various concentrations, followed by incubation at 37°C for 30 minutes. After completion of the incubation, cAMP in the cells of each well was extracted and quantified according to the method of cAMP EIA Kit (Amersham Inc.). An inhibition rate of the increased cAMP level in the cells by the forskolin treatment was calculated with the respective concentrations of the peptide.
# [3] = tested on: pituitary hormone level in plasma; test: Effect of administration into the third ventricle on pituitary hormone level in plasma (radioimmunoassay); type: in vivo, Wistar rats; settings: 10 nmols into the third ventricle; for plasma prolactin level: vs PBS control
# [4] = biological target: T2, Human 0T7T022 receptor-expressing CHO cells; test: Effect of pertussis toxin on activation of human 0T7T022 receptor by RFRP peptide (cAMP production inhibition); type: cell-based; settings: 0.1 µM peptide, 1 µM forskolin, cells treated with 100 ng/ml pertussis toxin, FIG. 15
# Experimental: Human 0T7T022 receptor-expressing CHO cells obtained in EXAMPLE 8 were inoculated on a 24-well plate in a concentration of 1 x 10^5 cells/well. After culturing overnight, the medium was exchanged by a medium added with 100 ng/ml pertussis toxin (Sigma, Inc.) or with a control medium followed by further incubation overnight. The cells were rinsed with Hanks' buffer (HBSS) supplemented with 0.05% BSA and 0.2 mM IBMX and then preincubated at 37°C for 30 minutes in the same buffer. Next, the cells were incubated at 37°C for 30 minutes after the buffer was exchanged by Hanks' buffer alone (HBSS) supplemented with 0.05% BSA and 0.2 mM IBMX (black column), or by HBSS further added with 1 µM forskolin only (white column), or by HBSS added with 1 µM forskolin and 0.1 µM RFRP-1-12 (peptide having the 81 (Met) to 92 (Phe) amino acid sequence in SEQ ID NO:1) (hatched column). After completion of the incubation, cAMP in the cells of each well was extracted and quantified according to the method of cAMP EIA Kit (Amersham, Inc.).
# T2 sequence (Q9GZQ6 whole entry): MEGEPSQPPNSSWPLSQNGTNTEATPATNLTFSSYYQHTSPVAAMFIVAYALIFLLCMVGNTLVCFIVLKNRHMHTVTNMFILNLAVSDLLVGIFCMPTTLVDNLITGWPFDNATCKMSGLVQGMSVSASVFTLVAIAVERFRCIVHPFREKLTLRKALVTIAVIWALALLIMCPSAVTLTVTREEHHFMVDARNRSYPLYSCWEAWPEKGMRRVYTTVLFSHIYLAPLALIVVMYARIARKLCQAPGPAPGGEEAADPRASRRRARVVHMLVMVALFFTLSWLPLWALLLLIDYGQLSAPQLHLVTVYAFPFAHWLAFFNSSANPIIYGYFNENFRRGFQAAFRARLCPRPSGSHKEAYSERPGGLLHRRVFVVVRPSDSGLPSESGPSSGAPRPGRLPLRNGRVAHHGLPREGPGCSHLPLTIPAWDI
# T1 sequence (Q9EP86 whole entry): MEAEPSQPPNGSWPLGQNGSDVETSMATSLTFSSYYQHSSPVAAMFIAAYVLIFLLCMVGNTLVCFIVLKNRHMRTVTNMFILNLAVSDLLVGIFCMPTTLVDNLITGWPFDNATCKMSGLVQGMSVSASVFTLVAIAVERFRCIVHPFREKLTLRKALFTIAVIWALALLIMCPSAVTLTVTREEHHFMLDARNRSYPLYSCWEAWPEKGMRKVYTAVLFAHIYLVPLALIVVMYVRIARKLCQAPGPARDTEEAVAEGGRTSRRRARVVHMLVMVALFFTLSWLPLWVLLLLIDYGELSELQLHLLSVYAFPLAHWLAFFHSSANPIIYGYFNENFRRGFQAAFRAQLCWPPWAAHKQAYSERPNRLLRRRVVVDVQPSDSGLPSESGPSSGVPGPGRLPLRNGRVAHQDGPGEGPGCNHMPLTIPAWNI
compound,measurement,setting,value
CC(C)C[C@H](NC(=O)[C@H](CC(N)=O)NC(=O)[C@@H]1CCCN1C(=O)[C@@H](N)C(C)C)C(=O)N1CCC[C@H]1C(=O)N[C@@H](CCC(N)=O)C(=O)N[C@@H](CCCNC(=N)N)C(=O)N[C@@H](Cc1ccccc1)C(N)=O,reaction of r0T7T022L-expressing CHO cells (acidification rate),[1],strongly showed dose-dependent reaction
"Asn-Pro-Phe-Phe [NPFF, reference compound]",ED50 levels (inhibition rate of the increased cAMP level in the cells by the forskolin treatment),[2],140 nM
MPHSFANLPLRF-NH2,reaction of r0T7T022L-expressing CHO cells (acidification rate),[1],strongly showed dose-dependent reaction
same,level of ACTH in plasma,[3],none showed any significant change
same,level of GH in plasma,[3],none showed any significant change
same,level of LH in plasma,[3],none showed any significant change
same,level of TSH in plasma,[3],none showed any significant change
same,plasma prolactin level,[3]; 10 minutes after administration,tended to increase
same,plasma prolactin level,[3]; 20 minutes after administration,significantly increased
same,plasma prolactin level,[3]; 30 minutes after administration,significantly increased
same,plasma prolactin level,[3]; 40 minutes after administration,significantly increased
same,plasma prolactin level,[3]; 60 minutes after administration,a significant difference was noted
same,cAMP production inhibiting activity,[4],lost
"Pro-Gln-Arg-Phe-NH2 (PQRF-NH2) [PQRFamide, reference compound]",ED50 levels (inhibition rate of the increased cAMP level in the cells by the forskolin treatment),[2],≥ 1000 nM
"hRFRP-1-37: peptide having the 56 (Ser) to 92 (Phe) amino acid sequence in SEQ ID NO:1 (SLNFEELKDWGPKNVIKMSTPAVNKMPHSFANLPLRF; UniProt Q9HCQ7 56-92, looked up, fragment)",ED50 levels (inhibition rate of the increased cAMP level in the cells by the forskolin treatment),[2],21 nM
"rRFRP-1-37: peptide having the 58 (Ser) to 94 (Phe) amino acid sequence in SEQ ID NO:50 (SVTFQELKDWGAKKDIKMSPAPANKVPHSAANLPLRF; UniProt Q9ESQ9 58-94, looked up, fragment)",ED50 levels (inhibition rate of the increased cAMP level in the cells by the forskolin treatment),[2],30 nM
